For data set [1], the system named is Liver. Nature of the data set: Unbound intrinsic clearance in human liver microsomes at 0.5 uM in presence of NADPH incubated for 5 to 30 mins by HPLC-MS/MS method. The format is ADME, microsome. A general note: Liver microsomes are vesicles of endoplasmic reticulum, rich in cytochrome P450 enzymes.
The test system of data set [2] is Liver. As to the kind of experiment: Unbound intrinsic clearance in rat liver microsomes at 0.5 uM in presence of NADPH incubated for 5 to 30 mins by HPLC-MS/MS method. The format is ADME, microsome.
The target in the next data set is Cytochrome P450 3A4 (Homo sapiens, UniProt P08684). Nature of the data set: Inhibition of CYP3A4 (unknown origin). The format is ADME.
Chain of Cytochrome P450 3A4 (P08684 whole entry): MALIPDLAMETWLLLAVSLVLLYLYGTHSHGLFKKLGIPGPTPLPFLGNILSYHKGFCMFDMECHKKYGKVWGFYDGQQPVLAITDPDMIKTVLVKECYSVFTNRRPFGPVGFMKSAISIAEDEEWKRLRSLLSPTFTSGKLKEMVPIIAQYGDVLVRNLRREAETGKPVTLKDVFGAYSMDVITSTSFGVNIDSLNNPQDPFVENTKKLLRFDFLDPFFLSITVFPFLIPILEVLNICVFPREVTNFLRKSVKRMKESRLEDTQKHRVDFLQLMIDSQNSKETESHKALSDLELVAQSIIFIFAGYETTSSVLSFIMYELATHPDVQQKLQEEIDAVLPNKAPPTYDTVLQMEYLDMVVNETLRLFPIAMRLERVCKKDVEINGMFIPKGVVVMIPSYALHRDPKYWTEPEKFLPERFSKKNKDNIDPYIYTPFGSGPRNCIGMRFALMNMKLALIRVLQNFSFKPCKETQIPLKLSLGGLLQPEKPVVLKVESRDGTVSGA
Data set [3] in a line: Half life in Sprague-Dawley rat at 1 mg/kg, iv. The conditions noted are these: in vivo. The format is ADME, organism-based.
The target of the next data set is Cytochrome P450 2C9 (Homo sapiens, UniProt P11712). As to the kind of experiment: Inhibition of CYP2C9 (unknown origin). The format is ADME.
Chain of Cytochrome P450 2C9 (P11712 whole entry): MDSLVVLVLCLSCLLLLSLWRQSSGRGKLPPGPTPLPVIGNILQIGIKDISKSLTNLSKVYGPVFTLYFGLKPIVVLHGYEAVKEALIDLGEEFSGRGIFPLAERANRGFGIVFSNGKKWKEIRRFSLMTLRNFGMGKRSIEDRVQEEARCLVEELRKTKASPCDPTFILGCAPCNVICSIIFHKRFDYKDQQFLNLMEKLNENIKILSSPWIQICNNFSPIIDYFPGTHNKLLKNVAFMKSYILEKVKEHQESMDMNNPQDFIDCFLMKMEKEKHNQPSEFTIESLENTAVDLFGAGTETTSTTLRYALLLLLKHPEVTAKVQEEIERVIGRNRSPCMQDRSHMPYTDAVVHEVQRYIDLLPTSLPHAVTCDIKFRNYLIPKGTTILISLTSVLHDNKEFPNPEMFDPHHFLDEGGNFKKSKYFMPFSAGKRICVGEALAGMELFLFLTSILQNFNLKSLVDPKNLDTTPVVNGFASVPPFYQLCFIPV
For data set [4], the system named is Liver. Nature of the data set: Unbound intrinsic clearance in mouse liver microsomes at 0.5 uM in presence of NADPH incubated for 5 to 30 mins by HPLC-MS/MS method. The format is ADME, microsome.
Data set [5] can be described thus: Oral bioavailability in Sprague-Dawley rat at 1 mg/kg. The data set is classed as ADME, organism-based. The conditions noted are these: in vivo.
A further data set has as its system HCT-116. Nature of the data set: Antitumor activity against human HCT116 cells xenografted in CB17 SCID mouse assessed as tumor growth inhibition at 15 mg/kg/day, po dosed daily (3 days on/4 days off per cycle for 3 cycles). The data set is classed as functional. The conditions noted are these: HCT-116, po, 72 h, read-out: TGI. Background: A xenograft is tissue or cells of one species grown in another, often human tumour cells in immunodeficient mice.

The nature of data set [6]: Aqueous solubility of the compound. The format is physicochemical. The conditions noted are these: buffer.
For a further data set, the system named is PC-3. Nature of the data set: Antiproliferative activity against human PC3 cells assessed as reduction in cell viability incubated for 5 days by Cell-titer Glo reagent based assay. The data set is classed as functional.
Data set [7] in a line: Plasma clearance in Sprague-Dawley rat at 1 mg/kg, iv. The data set is classed as ADME, organism-based.
In data set [8] the target is Nicotinamide phosphoribosyltransferase (Homo sapiens, UniProt P43490).
Chain of Nicotinamide phosphoribosyltransferase (P43490 whole entry): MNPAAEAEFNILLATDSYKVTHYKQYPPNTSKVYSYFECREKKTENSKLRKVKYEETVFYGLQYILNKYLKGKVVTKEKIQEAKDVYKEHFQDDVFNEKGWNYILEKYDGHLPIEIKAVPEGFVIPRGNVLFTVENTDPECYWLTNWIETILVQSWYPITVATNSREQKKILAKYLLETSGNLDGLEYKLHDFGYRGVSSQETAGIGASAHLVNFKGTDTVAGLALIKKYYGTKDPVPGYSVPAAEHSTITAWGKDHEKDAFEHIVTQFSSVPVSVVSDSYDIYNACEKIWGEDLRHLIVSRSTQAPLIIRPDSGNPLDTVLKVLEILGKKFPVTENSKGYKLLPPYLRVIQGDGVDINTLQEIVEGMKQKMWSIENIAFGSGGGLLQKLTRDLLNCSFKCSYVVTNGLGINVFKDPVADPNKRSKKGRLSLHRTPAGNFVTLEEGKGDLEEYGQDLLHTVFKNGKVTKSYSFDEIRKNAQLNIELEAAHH
Description: Inhibition of C-terminal His-tagged human recombinant NAMPT using FK866 or isoindoline urea-based Oregon green (488) probe incubated for 3 hrs by TR-FRET assay
The test system of data set [9] is Rattus norvegicus. As to the kind of experiment: Unbound intrinsic clearance in Sprague-Dawley rat at 1 mg/kg, iv. The conditions noted are these: in vivo. The format is ADME, organism-based.
For data set [10], the system named is Rattus norvegicus. Nature of the data set: Unbound intrinsic clearance in Sprague-Dawley rat at 5 mg/kg, iv. The data set is classed as ADME, organism-based. The conditions noted are these: in vivo.
A further data set deals with ES2. The conditions noted are these: Homo sapiens.
The subject of a further data set is U-87 MG. The note with it: Homo sapiens; U-87MG ATCC.
Data set [11] is described as follows: Half life in Sprague-Dawley rat at 5 mg/kg, iv. The format is ADME, organism-based. The conditions noted are these: in vivo.
The nature of data set [12]: Oral bioavailability in Sprague-Dawley rat at 5 mg/kg. The data set is classed as ADME, organism-based. The note with it: in vivo.
The nature of data set [13]: Plasma clearance in Sprague-Dawley rat at 5 mg/kg, iv. The format is ADME, organism-based.
The next data set concerns H460LM. The note with it: Homo sapiens.
The test system of the next data set is A2780. The conditions noted are these: Homo sapiens.
The test system of a further data set is NCI-H345. The conditions noted are these: Homo sapiens.

Converted amounts (≈) assume the structure as drawn. The source made the active and inactive calls. No cut-off for these calls is given here.

The record followed here is ChEMBL document CHEMBL4033748, “SAR and characterization of non-substrate isoindoline urea inhibitors of nicotinamide phosphoribosyltransferase (NAMPT)” (Bioorg Med Chem Lett, 2017).

By IC50 is commonly meant the concentration at which inhibition is half-maximal. What is called half-life is the time in which the quantity being followed falls by half. Broadly, the bioavailability is dose-corrected exposure relative to a reference, in per cent. One may read the solubility as the concentration that dissolves in the medium under given conditions. Read a high solubility as much dissolved substance. As usually defined, the clearance is the volume of plasma or blood freed of the substance per unit of time. Low readings indicate inefficient removal, high ones efficient removal. A word on the Ki: it is the dissociation constant of the complex between target and ligand, obtained from inhibition or displacement. A high value points to weaker binding.

Description for A2780: Antitumor activity against human A2780 cells xenografted in CB17 SCID mouse assessed as tumor growth inhibition
Description for ES2: Antitumor activity against human ES2 cells xenografted in CB17 SCID mouse assessed as tumor growth inhibition
Description for H460LM: Antitumor activity against human H460LM cells xenografted in CB17 SCID mouse assessed as tumor growth inhibition
Description for NCI-H345: Antitumor activity against human NCI-H345 cells xenografted in CB17 SCID mouse assessed as tumor growth inhibition
Description for U-87 MG: Antitumor activity against human U87MG cells xenografted in CB17 SCID mouse assessed as tumor growth inhibition

For the compound `CC(C)(O)CC(=O)N1CCC(c2ccc(NC(=O)N3Cc4ccccc4C3)cc2)CC1`, the CL free in the data set with Liver [1] is 58.3 mL/min/kg; in the data set with Liver [2] it was below 56.7 mL/min/kg; with Liver [4], 300 mL/min/kg; in the data set with Rattus norvegicus [9], 28.3 mL/min/kg. The IC50 at Cytochrome P450 3A4 came to 16000 nM; against Cytochrome P450 2C9, 8400 nM; in the data set with PC-3 (Homo sapiens, PC-3, 120 h) it was 24 nM. In data set [3], this compound gave a half-life of 4.8 h. Moreover, the bioavailability in [5] is 100%. For the same compound, in the data set with HCT-116, the inhibition in vivo at 15 mg/kg/day turned out to be 90%. In [6], this compound displayed a solubility of 3.3 µM (≈ 1.39 µg/mL). In addition, the clearance in data set [7] is 1.83 mL/min/kg. The same compound registered a Ki in [8] of 5.6 nM.
Turning to `CC(C)CCC(=O)Nc1ccc(NC(=O)N2Cc3ccccc3C2)cc1`, the figures for the CL free with Liver [1] and in the data set with Liver [4] were 60 mL/min/kg and 783 mL/min/kg, respectively. This compound displayed a solubility in [6] below 5 µM. In addition, the IC50 in the data set on PC-3 (Homo sapiens, PC-3, 120 h) turned out to be 17 nM. Besides, in data set [8], affinity was put at a Ki of 58 nM.
As for `O=C(NC[C@@H]1CCOC1)c1ccc(NC(=O)N2Cc3ccccc3C2)cc1`, the CL free is below 46.7 mL/min/kg in the data set with Liver [2] and 28.3 mL/min/kg in the data set on Rattus norvegicus [10]. For the same compound, the IC50 was above 20000 nM against Cytochrome P450 3A4, above 20000 nM against Cytochrome P450 2C9 and 56 nM in the data set with PC-3 (pc-3). The TGI entry with ES2, in the data set with U-87 MG, in the data set on H460LM, in the data set with A2780 and in the data set with NCI-H345 was “Active” in each case. The compound further had a half-life in data set [11] of 3 h. The bioavailability in [12] stood at 59%. The same compound gave a clearance in data set [13] of 4.33 mL/min/kg. The inhibition in vivo at 15 mg/kg/day in the data set on HCT-116 was found to be 78%. Also, the concentration in solution in [6] (solubility) came to 17 µM (≈ 6.21 µg/mL).
Take `CN1CCC(C(=O)N2CCC(c3ccc(NC(=O)N4Cc5ccc(F)cc5C4)cc3)CC2)CC1`: the results for the CL free with Liver [1] and with Liver [4] were 41.7 mL/min/kg and 267 mL/min/kg, respectively. In addition, the IC50 in the data set with PC-3 (Homo sapiens, PC-3, 120 h) was found to be 5.6 nM. In data set [8], the Ki turned out to be 9.4 nM.
On to `COC(=O)c1ccc(NC(=O)N2Cc3ccccc3C2)cc1`, for which the solubility in data set [6] was below 5 µM. Further, the IC50 in the data set with PC-3 (pc-3) stood at 2300 nM. Moreover, in data set [8], the affinity corresponds to a Ki of 112 nM.
For `Cc1ccc(NC(=O)N2Cc3ccccc3C2)cc1`, in that order: below 5 µM, above 10000 nM and 2200 nM.
For `O=C(Nc1ccc(C2CCN(S(=O)(=O)C3CC3)CC2)cc1)N1Cc2ccc(F)cc2C1`, the CL free in the data set on Liver [1] was 58.3 mL/min/kg; with Liver [4] it was 500 mL/min/kg. Also, the IC50 in the data set with PC-3 (Homo sapiens, PC-3, 120 h) amounted to 6.5 nM. In addition, the affinity in data set [8] corresponds to a Ki of 3.9 nM.
For `O=C(Nc1ccc(C2CN(C(=O)c3ccccc3)C2)cc1)N1Cc2ccc(F)cc2C1`, in that order: 45 mL/min/kg, 433 mL/min/kg, 3.9 nM and 1.9 nM.
In the same order, the values of `CC(C)(O)CC(=O)N1CCC(c2ccc(NC(=O)N3Cc4ccc(F)cc4C3)cc2)CC1` are 95 mL/min/kg, 143 mL/min/kg, 3.2 nM and 2.5 nM.
For `CN(CCC(C)(C)C)C(=O)c1ccc(NC(=O)N2Cc3ccccc3C2)cc1`, the figures for the CL free in the data set with Liver [1] and in the data set with Liver [4] were 2000 mL/min/kg and 2170 mL/min/kg, respectively. Besides, the solubility in data set [6] is below 5 µM. Further, the IC50 in the data set with PC-3 (Homo sapiens, PC-3, 120 h) was determined as 1100 nM. Besides, the affinity in data set [8], expressed as Ki, was 160 nM.
